pIC50, pKi: −log10 of the molar value. Where two headings read alike, the source gives them in different places.
How the values were obtained:
TcPRAC [1] = target: T1, TcPRAC (Trypanosoma cruzi, UniProt Q4DA80); assay: L-proline racemization assay, formed D-proline determined by DAAOx test; format: biochemical
T1 construct: implied only by nickel IMAC purification; made in house; host or cells: E. coli BL21 (DE3)
Procedure: (§1) Briefly, classical assays of Proline racemization induced by TcPRAC were performed in tubes in a final volume of 1.5 ml and optical rotations measured in a polarimeter 241MC (Perkin Elmer). Parallel assays of Proline racemization were transposed into microplates in a final volume of 100 µl, as follows: serial dilutions of L- Proline ranging from 40 mM to 2.5 mM were prepared in 0.2 M sodium acetate pH 6.0 containing 0.25 mM rTcPRAC and loaded into microplate wells in the presence or in the absence of 0 - 20 µM pyrrole-2 carboxylic acid (PYC) or of similar dilutions of unknown potential inhibitors. Specific control wells were included omitting the TcPRAC and/or the PYC.
Microplates were incubated for 30 minutes at 37° C. Enzyme activity was then inactivated by heating the plate for 15 seconds in a microwave oven at 900 watts after shifting the pH of wells to 8.3 by addition of 6.8 µl of 0.235 M sodium Pyrophosphate. 50 µl of each well were used to test the presence of D-Proline using the DAAOx (D-amino acid oxidase) test described below. L- amino acids may react at very low rate with DAAOx. For instance, DAAOx reacts with L-Proline 300 times slower than D-Proline. Consequently, when assessing amino acid racemization products, standards should consist of serial dilution of equimolar mixtures of specific D- and L-amino acids ranging from 0 to 20 mM (10 mM final) to take into account any interference of possible reactivity with DAAOx of the L- form of amino acids present in the samples.
Solution A consisting of 0.2 M sodium acetate/0.016 M sodium pyrophosphate (Pop) buffer, pH 8.3 was used to prepare the enzyme stock solutions conserved in 50% glycerol, namely: 50 U/ml D-amino acid oxidase from pig kidney (DAAOx, Sigma) and 5000 U/ml Horse Raddish Peroxydase (HRP, Sigma). Stock solutions of L- proline (1M), D- proline (1M) and Pyrrole-2-carboxylic acid (10 mM) (PYC, Sigma) are also prepared in solution A. 10^-1 M FAD (Sigma) stock was prepared in water. Solution B consists in adding to solution A the following reagents at a final concentration in the assay of 1 U/ml for DAAOx, 0.5 mg/ml orthophenylenediamine (OPD, Sigma), 37.5 U/ml HRP and FAD (1.5x10^-5 M FAD). The test is run in 96 wells micro plates (Nunc, Denmark). […] OD 490nm - 650nm is obtained with a microtiter plate reader (Molecular Devices), and compared to those obtained with blank control wells.
The values presented in Table 2A correspond to racemization reactions performed in the absence or in the presence of 10 µM concentration of the different ligands. […] Briefly, 22.4 mg/ml of active TcPRAC was used in the racemization assays of 10 mM L-proline substrate and the concentration of formed D-proline was determined by the DAAOx test, as described in the Material and Methods. […]

TcPRAC [2] = target: T1, TcPRAC; assay: L-proline racemization assay by polarimetry; format: biochemical; settings: ligand 10.0 µM; L-Proline 20 mM, 30 minutes 37°C, 0.25 µM TcPRAC
Procedure: as §1
The values presented in Table 2B correspond to racemization reactions performed in the absence or in the presence of the different inhibitors. Note that 6 µM PYC is necessary to inhibit 100 % of the racemization of 10-20 mM L-proline. Briefly, L-Proline (20 mM) were incubated for 30 minutes at 37°C in test tubes with or without 0.25 µM TcPRAC in 0.2 M sodium acetate pH 6. Reactions were stopped by heating at 65° C for 10 minutes. Reaction volumes were analyzed for D-Proline formation, by measuring optical rotations in a polarimeter (365nm).

T. cruzi = assay: Capture ELISA of Vero cultures infected 17h with or without inhibitor; format: cell-based, Trypanosoma cruzi; settings: 17h at 37°C, 10:1 parasite/cell ratio; 0-30 mM OxoPA, Br-OxoPA or 10-1000 µM PYC in DMSO; Fig. 9
Procedure: Flat-bottomed microtiter plates (Nunc, Denmark) were coated overnight at 4°C with rabbit anti-T. cruzi polyclonal antibodies and further blocked for 4 h at room temperature (RT) with 1% BSA, 0.05% Tween 20 in PBS. After washings, lysate samples from infected or control Vero cultures, or from T. cruzi, were then added and incubated at 4°C for 18h. Plates were washed with PBS-Tween and incubated for 2h at RT with polyclonal mouse anti-T. cruzi chronic serum, washed again and incubated for 1 h at RT with HRP-secondary antibodies. […] Optical densities were determined in a spectrophotometer at 450 nm and 650 nm and analyzed using Softmax Pro software.
To confirm the effect of the inhibitors in the initial steps of the host-parasite interaction, cultures were infected for 17h at 37°C at a 10:1 parasite/cell ratio with or without increasing doses of freshly prepared dilutions (0-30 mM) of OxoPA, Br-OxoPA (15), or (10-1000 µM) of PYC, previously dissolved in DMSO and further analyzed by capture ELISA (see methods and Fig. 9). […] Three ongoing studies were performed to determine whether TcPRAC inhibition by the new compounds affects parasite intracellular fate. To do this, host cells were infected for 17 hours then washed and different ligand concentrations (5 mM, 10 mM, 30, 100 mM) were added to the medium. The degree of infection was determined over 48 hours by capture ELISA. The number of parasites per well decreased in a dose-dependent manner (Fig. 7). These experiments indicate that TcPRAC inhibition by OxoPA and Br-OxoPA affects both cellular infection by T. cruzi and parasite development in tissues.

[3] = system: T.cruzi CL Brener (clone F11-F5); settings: cited from earlier work; for Mean number of parasites/ cell / % Infected cells / Endocytic index: from previous work; for Endocytic index (EI): Table 5, same PYC data as Table 3A
recombinant TvPRAC = settings: 5 µM PYC, 20-160 mM L-proline; Chamond et al 2009; cited from earlier work
TcPRAC [4] = target: T1, TcPRAC; settings: cited from earlier work
CsPRAC = settings: value given for comparison; cited from earlier work
TcPRAC [5] = target: T1, TcPRAC; format: biochemical; settings: in words; for inhibition of TcPRAC activity: Table 1
Procedure: Optimum Proline racemization conditions for TcPRAC were determined using 10-20 mM L-Proline in 0.2 M NaOAc, as a function of pH, as described [24].
Briefly, classical assays of Proline racemization induced by TcPRAC were performed in tubes in a final volume of 1.5 ml and optical rotations measured in a polarimeter 241MC (Perkin Elmer). […] Specific control wells were included omitting the TcPRAC and/or the PYC.
Microplates were incubated for 30 minutes at 37° C. Enzyme activity was then inactivated by heating the plate for 15 seconds in a microwave oven at 900 watts after shifting the pH of wells to 8.3 by addition of 6.8 µl of 0.235 M sodium Pyrophosphate. 50 µl of each well were used to test the presence of D-Proline using the DAAOx (D-amino acid oxidase) test described below [25]. L- amino acids may react at very low rate with DAAOx. For instance, DAAOx reacts with L-Proline 300 times slower than D-Proline. Consequently, when assessing amino acid racemization products, standards should consist of serial dilution of equimolar mixtures of specific D- and L-amino acids ranging from 0 to 20 mM (10 mM final) to take into account any interference of possible reactivity with DAAOx of the L- form of amino acids present in the samples.
Solution A consisting of 0.2 M sodium acetate/0.016 M sodium pyrophosphate (Pop) buffer, pH 8.3 was used to prepare the enzyme stock solutions conserved in 50% glycerol, namely: 50 U/ml D-amino acid oxidase from pig kidney (DAAOx, Sigma) and 5000 U/ml Horse Raddish Peroxydase (HRP, Sigma). Stock solutions of L- proline (1M), D- proline (1M) and Pyrrole-2-carboxylic acid (10 mM) (PYC, Sigma) are also prepared in solution A. 10^-1 M FAD (Sigma) stock was prepared in water. Solution B consists in adding to solution A the following reagents at a final concentration in the assay of 1 U/ml for DAAOx, 0.5 mg/ml orthophenylenediamine (OPD, Sigma), 37.5 U/ml HRP and FAD (1.5x10^-5 M FAD). […] OD 490nm - 650nm is obtained with a microtiter plate reader (Molecular Devices), and compared to those obtained with blank control wells. […]

T1 sequence (Q4DA80 32-423): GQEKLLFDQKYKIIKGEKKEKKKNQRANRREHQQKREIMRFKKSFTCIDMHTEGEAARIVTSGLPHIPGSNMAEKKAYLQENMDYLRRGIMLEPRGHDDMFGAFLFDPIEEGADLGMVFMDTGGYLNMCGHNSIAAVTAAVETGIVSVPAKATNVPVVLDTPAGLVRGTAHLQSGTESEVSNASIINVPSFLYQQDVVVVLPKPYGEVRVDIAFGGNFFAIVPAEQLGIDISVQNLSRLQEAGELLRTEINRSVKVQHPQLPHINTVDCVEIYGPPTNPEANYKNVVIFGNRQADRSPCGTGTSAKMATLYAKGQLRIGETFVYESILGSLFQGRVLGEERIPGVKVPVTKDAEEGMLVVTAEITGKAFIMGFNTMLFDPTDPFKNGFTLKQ

O=C(O)c1ccc[nH]1 [PYC, pyrrole-2-carboxylic acid]
pIC50 (TcPRAC [1]): ~5.00
Formed D-Proline (TcPRAC [1]; ligand 10 µM, 10 mM L-proline, 22.4 mg/ml TcPRAC, 5.0mM without ligand): 2.4 mM (IC50)
Racemization Inhibition (TcPRAC [2]): 56.9%
inhibition of cellular infection (T. cruzi): no particular differences were observed
Mean number of parasites/ cell ([3]; 10 µM, 2 at 0): 1,7
% Infected cells ([3]; 10 µM, 90,0 at 0): 75,0%
Endocytic index ([3]; 10 µM): 44
% Infected cells ([3]; 100 µM): 45,0%
Endocytic index ([3]; 100 µM): 30
Mean number of parasites/ cell ([3]; 100 µM): 1,5
% Infected cells ([3]; 1000 µM): 25,0%
Endocytic index ([3]; 1000 µM): 25
Mean number of parasites/ cell ([3]; 1000 µM): 1,0
Endocytic index (EI) ([3]; Inhibitor concentration 10): 44
Endocytic index (EI) ([3]; Inhibitor concentration 100): 30
Endocytic index (EI) ([3]; Inhibitor concentration 1000): 25
pKi (recombinant TvPRAC): 4.70
PYC necessary to inhibit 100 % of the racemization of 10-20 mM L-proline (TcPRAC [4]; reference [15]): 6 µM
affinity for the TcPRAC catalytic pocket (TcPRAC [4]; reference [15]): 6 µM
pKi (TcPRAC [4]; value given for comparison): 5.17
pKi (CsPRAC): 4.74

O=C(O)c1n[nH]cc1Cl [Pyrazole 4-chloro 5-carboxylic, 4-chloro-1H-pyrazole-3-carboxylic acid]
inhibition of TcPRAC activity (TcPRAC [5]): weak inhibitions

O=C(O)c1cc[nH]n1 [Pyrazole 5-carboxylic, 1H-pyrazole-3-carboxylic acid]
activity with PRAC (Figure 1 compounds) (TcPRAC [5]): very weakly active

O=C(O)c1n[nH]cc1Br [Pyrazole 4-bromo 5-carboxylic, 4-bromo-1H-pyrazole-3-carboxylic acid]
inhibition of TcPRAC activity (TcPRAC [5]): weak inhibitions

— patent EP2451450B1, “Inhibitors of proline racemase enzymes for the treatment of Trypanosoma spp infections” (Institut Pasteur, priority 2009, dated 2011)
